How the values were obtained:
substance P receptor = target: T1, substance P receptor (Homo sapiens, UniProt P25103); test: Radioligand receptor binding inhibitory activity using receptor from human lymphoblast cells (IM-9); settings: [125I]-BHSP binding, receptor from IM-9 cells, 25 C, 30 min
T1 construct: endogenous in cells; host or cells: IM-9 human lymphoblast cells (membrane preparation)
Procedure: Radioligand receptor binding inhibitory activity (Binding inhibitory activity using receptor from human lymphoblast cells (IM-9))
The method of M. A. Cascieri et al., “Molecular Pharmacology 42, p. 458 (1992)” was modified and used. The receptor was. prepared from human lymphoblast cells (IM-9). IM-9 cells (2×10^5 cells/mL) were incubated for 3 days (one liter), which was then subjected to centrifuge for 5 min. at 500×G to obtain cell pellets. The obtained pellets were washed once with phosphate buffer (Flow Laboratories, CAT. No. 28-103-05), which were then homogenized using Polytron homogenizer (“Kinematika”, Germany) in 30 mL of 50 mM Tris-HCl buffer (pH 7.4) containing 120 mM sodium chloride, 5 mM potassium chloride, 2 μg/mL chymostatin, 40 μg/mL bacitracin, 5 μg/mL phosphoramidon, 0.5 mM phenylmethylsulfonyl fluoride, 1 mM ethylenediamine tetra-acetate, which was subjected to centrifuge at 40,000×G for 20 min. The residue was washed twice with 30 mL of the buffer, which was then preserved frozen (−80° C.) as a specimen of the receptor.
The specimen was suspended in a reaction buffer (50 mM Tris-HCl buffer (pH 7.4), 0.02% bovine serum albumin, 1 mM phenylmethylsulfonyl fluoride, 2 μg/mL chymostatin, 40 μg/mL bacitracin and 3 mM manganese chloride) to have protein in the concentration of 0.5 mg/mL of protein and 100 μL portion of the suspension was used in the reaction. After addition of the sample and ^125]-BHSP (0.46 KBq), the reaction was allowed to proceed in 0.2 mL of reaction buffer at […] for 30 min. The amount of nonspecific binding was determined by adding substance P at a final concentration of 2×10^−6 M.
After the reaction, using a cell harvester (290 PHD, Cambridge Technology, Inc, U.S.A.), filtration was carried out through a glass filter (GF/B, Whatman, U.S.A.), which was immersed in 0.1% polyethyleneimine for 24 hrs. and dried. After washing three times with 250 μL of 50 mM Tris-HCl buffer (pH 7.4) containing 0.02% bovine serum albumin, the radioactivity remaining on the filter was. determined with a gamma counter.
The antagonistic activity of each compound obtained in Examples was determined in terms of the concentration necessary to cause 50% inhibition (IC50 value) under the above-described conditions, and the results were shown in Table 14.
The radio ligand means substance P labeled with [^125I].

[1] = tested on: urethane anesthetized male guinea pigs; test: Bladder capacity increasing action in urethane anesthetized guinea pigs; assay type: in vivo, guinea pig; settings: for Changes in bladder capacity (vs before administration, %): mean ± S.E.M.
Procedure: Bladder capacity increasing activity of substance P receptor antagonist (bladder capacity increasing action in urethane anesthetized guinea pigs)
A urinary frequency/urine incontinence suppressing effect of a substance having a substance P receptor antagonistic action was shown in terms of the ability to increase bladder capacity of urethane anesthetized male guinea pigs. After emptying the bladder by suction, saline warmed to 39° C. is infused into the bladder at a constant rate (0.3 mL/min.), until voiding. This procedure was repeated to confirm stable bladder capacity (amount of saline injected before induction of voiding). After confirming a stable response, a compound dissolved in DMSO was intravenously administered and the action was measured. Changes in the bladder capacity after drug administration were measured.

T1 sequence (P25103 whole entry): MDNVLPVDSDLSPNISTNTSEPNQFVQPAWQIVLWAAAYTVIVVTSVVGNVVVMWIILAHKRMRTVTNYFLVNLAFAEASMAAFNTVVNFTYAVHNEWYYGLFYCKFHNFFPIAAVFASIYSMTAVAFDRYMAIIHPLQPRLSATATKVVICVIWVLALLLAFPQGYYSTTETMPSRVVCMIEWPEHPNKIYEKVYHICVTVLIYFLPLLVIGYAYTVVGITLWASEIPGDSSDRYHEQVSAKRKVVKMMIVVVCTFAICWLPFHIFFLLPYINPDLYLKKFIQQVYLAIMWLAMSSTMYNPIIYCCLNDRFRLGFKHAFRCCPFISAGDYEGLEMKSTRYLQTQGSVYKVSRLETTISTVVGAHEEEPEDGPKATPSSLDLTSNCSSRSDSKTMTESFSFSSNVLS

Structure (SMILES)	IC50 (substance P receptor) [nM]	other results
C[C@@H](O[C@@H]1CCNC[C@@H]1c1ccccc1)c1cc(C(F)(F)F)cc(C(F)(F)F)c1.Cl	–	melting point: 150 to 152 °C
C[C@H](O[C@H]1CCNC[C@H]1c1ccccc1)c1cc(C(F)(F)F)cc(C(F)(F)F)c1.Cl	–	melting point: 150 to 152 °C
CC(C)NC(=O)N[C@H]1CC[C@H](C(=O)N2CC[C@H](O[C@H](C)c3cc(C(F)(F)F)cc(C(F)(F)F)c3)[C@H](c3ccccc3)C2)CC1 [Example 65, N-[trans-4-[[(3R,4S)-4-[(1R)-1-[3,5-Bis(trifluoromethyl)phenyl]ethoxy]-3-phenylpiperidin-1-yl]carbonyl]cyclohexyl]-N′-isopropylurea]	0.099	–
CNC(=O)[C@H]1CC[C@H](C(=O)N2CC[C@H](O[C@H](C)c3cc(C(F)(F)F)cc(C(F)(F)F)c3)[C@H](c3ccccc3)C2)CC1 [Example 68, trans-4-[[(3R,4S)-4-[(1R)-1-[3,5-Bis(trifluoromethyl)phenyl]ethoxy]-3-phenylpiperidin-1-yl]carbonyl]-N-methylcyclohexanecarboxamide]	0.094	–
CCNC(=O)[C@H]1CC[C@H](C(=O)N2CC[C@H](O[C@H](C)c3cc(C(F)(F)F)cc(C(F)(F)F)c3)[C@H](c3ccccc3)C2)CC1 [Example 69, trans-4-[[(3R,4S)-4-[(1R)-1-[3,5-Bis(trifluoromethyl)phenyl]ethoxy]-3-phenylpiperidin-1-yl]carbonyl]-N-ethylcyclohexanecarboxamide]	0.099	–
CC(=O)N1CCC(NC(=O)N2CC[C@H](O[C@H](C)c3cc(C(F)(F)F)cc(C(F)(F)F)c3)[C@H](c3ccccc3)C2)CC1 [Example 71, (3R,4S)-N-(1-acetylpiperidin-4-yl)-4-[(1R)-1-[3,5-bis(trifluoromethyl)phenyl]ethoxy]-3-phenylpiperidine-1-carboxamide]	0.094	–
CCC(=O)N1CCC(NC(=O)N2CC[C@H](O[C@H](C)c3cc(C(F)(F)F)cc(C(F)(F)F)c3)[C@H](c3ccccc3)C2)CC1 [Example 72, (3R,4S)-4-[(1R)-1-[3,5-Bis(trifluoromethyl)phenyl]ethoxy]-3-phenyl-N-(1-propionylpiperidin-4-yl)piperidine-1-carboxamide]	0.091	–
CC(=O)NC1CCN(C(=O)N2CC[C@H](O[C@H](C)c3cc(C(F)(F)F)cc(C(F)(F)F)c3)[C@H](c3ccccc3)C2)CC1 [Example 73, N-[1-[[(3R,4S)-4-[(1R)-1-[3,5-bis(trifluoromethyl)phenyl]ethoxy]-3-phenylpiperidin-1-yl]carbonyl]piperidin-4-yl]acetamide]	0.097	–
C[C@@H](O[C@H]1CCN(C(=O)CC2NC(=O)NC2=O)C[C@H]1c1ccccc1)c1cc(C(F)(F)F)cc(C(F)(F)F)c1 (stereo partly drawn) [Example 78, 5-[2-[(3R,4S)-4-[(1R)-1-[3,5-Bis(trifluoromethyl)phenyl]ethoxy]-3-phenylpiperidin-1-yl]-2-oxoethyl]imidazolidine-2,4-dione]	0.096	–
C[C@@H](O[C@H]1OCCN(Cc2n[nH]c(=O)[nH]2)[C@H]1c1ccc(F)cc1)c1cc(C(F)(F)F)cc(C(F)(F)F)c1 [MK-869, 5-[[(2R,3S)-2-[(1R)-1-[3,5-bis(trifluoromethyl)phenyl]ethoxy]-3-(4-fluorophenyl)-4-morpholinyl]methyl]-1,2-dihydro-3H-1,2,4-triazol-3-one, reference compound]	–	Changes in bladder capacity (vs before administration, %) ([1]; Table 15, 0.1 mg/kg intravenous): 14.7 ± 4.8%; Changes in bladder capacity (vs before administration, %) ([1]; Table 15, 0.3 mg/kg intravenous): 49.5 ± 10.3 %; Changes in bladder capacity (vs before administration, %) ([1]; Table 15, 1 mg/kg intravenous): 71.2 ± 16.9 %; voiding pressure ([1]; intravenous administration, urethane anesthetized guinea pigs): without affecting the voiding pressure

Second part, led by results:

IC50 (substance P receptor) [nM]	Structure (SMILES)	other results
0.039	CCC(=O)N[C@H]1CC[C@H](C(=O)N2CC[C@H](O[C@H](C)c3cc(C(F)(F)F)cc(C(F)(F)F)c3)[C@H](c3ccccc3)C2)CC1 [Example 43, N-[trans-4-[[(3R,4S)-4-[(1R)-1-[3,5-Bis(trifluoromethyl)phenyl]ethoxy]-3-phenylpiperidin-1-yl]carbonyl]cyclohexyl]propanamide]	Changes in bladder capacity (vs before administration, %) ([1]; Table 16, 0.01 mg/kg intravenous): 20.8 ± 5.6%; Changes in bladder capacity (vs before administration, %) ([1]; Table 16, 0.03 mg/kg intravenous): 19.3 ± 4.5%; Changes in bladder capacity (vs before administration, %) ([1]; Table 16, 0.1 mg/kg intravenous): 39.9 ± 4.9 %; Changes in bladder capacity (vs before administration, %) ([1]; Table 16, 0.3 mg/kg intravenous): 55.2 ± 13.3 %; Changes in bladder capacity (vs before administration, %) ([1]; Table 16, 1 mg/kg intravenous): 74.3 ± 11.1 %
0.072	C[C@@H](O[C@H]1CCN(C(=O)[C@H]2CC[C@H](NC(=O)N(C)C)CC2)C[C@H]1c1ccccc1)c1cc(C(F)(F)F)cc(C(F)(F)F)c1 [Example 66, N′-[trans-4-[[(3R,4S)-4-[(1R)-1-[3,5-Bis(trifluoromethyl)phenyl]ethoxy]-3-phenylpiperidin-1-yl]carbonyl]cyclohexyl]-N,N-dimethylurea]	–
0.087	CCC(=O)NC1CCN(C(=O)N2CC[C@H](O[C@H](C)c3cc(C(F)(F)F)cc(C(F)(F)F)c3)[C@H](c3ccccc3)C2)CC1 [Example 74, N-[1-[[(3R,4S)-4-[(1R)-1-[3,5-bis(trifluoromethyl)phenyl]ethoxy]-3-phenylpiperidin-1-yl]carbonyl]piperidin-4-yl]propanamide]	–
0.084	C[C@@H](O[C@H]1CCN(C(=O)C2CC(=O)NC(=O)C2)C[C@H]1c1ccccc1)c1cc(C(F)(F)F)cc(C(F)(F)F)c1 [Example 76, 4-[[(3R,4S)-4-[(1R)-1-[3,5-Bis(trifluoromethyl)phenyl]ethoxy]-3-phenylpiperidin-1-yl]carbonyl]piperidine-2,6-dione]	–
0.062	C[C@@H](O[C@H]1CCN(C(=O)C2CC(=O)N(C)C(=O)C2)C[C@H]1c1ccccc1)c1cc(C(F)(F)F)cc(C(F)(F)F)c1 [Example 77, 4-[[(3R,4S)-4-[(1R)-1-[3,5-Bis(trifluoromethyl)phenyl]ethoxy]-3-phenylpiperidin-1-yl]carbonyl]-1-methylpiperidine-2,6-dione]	–
0.02	C[C@@H](O[C@H]1CCN(C(=O)C2CCN(C(=O)Cn3cncn3)CC2)C[C@H]1c1ccccc1)c1cc(C(F)(F)F)cc(C(F)(F)F)c1 [Example 119, (3R,4S)-4-{(1R)-1-[3,5-Bis(trifluoromethyl)phenyl]ethoxy}-3-phenyl-1-([1-(1H-1,2,4-triazol-1-ylacetyl)piperidin-4-yl]carbonyl}piperidine]	–
0.021	C[C@@H](O[C@H]1CCN(C(=O)C2CCN(C(=O)Cn3cccn3)CC2)C[C@H]1c1ccccc1)c1cc(C(F)(F)F)cc(C(F)(F)F)c1 [Example 122, (3R,4S)-4-{(1R)-1-[3,5-Bis(trifluoromethyl)phenyl]ethoxy}-3-phenyl-1-{[1-(1H-pyrazol-1-ylacetyl)piperidin-4-yl]carbonyl}piperidine]	–

From US20060142337A1, “Piperidine derivative and use thereof” (priority 2004, published 2006)
